Measurements taken from ChEMBL document CHEMBL5729675, “Sulfonamide compound or salt thereof” (2023).

target: Ribonucleotide reductase (Homo sapiens, UniProt P23921+Q7LG56); assay: Human RNR Inhibition Effect: The inhibitory activity against the ribonucleotide reduction reaction (hereinafter referred to as RNR reaction) of the test compound was determined by measuring the formation of deoxycytidine diphosphate (hereinafter referred to as dCDP) from cytidine diphosphate (hereinafter referred to as CDP) by the following method.Human M1 subunit and human M2 subunit (mutant …
Sequence (P23921 whole entry, looked up): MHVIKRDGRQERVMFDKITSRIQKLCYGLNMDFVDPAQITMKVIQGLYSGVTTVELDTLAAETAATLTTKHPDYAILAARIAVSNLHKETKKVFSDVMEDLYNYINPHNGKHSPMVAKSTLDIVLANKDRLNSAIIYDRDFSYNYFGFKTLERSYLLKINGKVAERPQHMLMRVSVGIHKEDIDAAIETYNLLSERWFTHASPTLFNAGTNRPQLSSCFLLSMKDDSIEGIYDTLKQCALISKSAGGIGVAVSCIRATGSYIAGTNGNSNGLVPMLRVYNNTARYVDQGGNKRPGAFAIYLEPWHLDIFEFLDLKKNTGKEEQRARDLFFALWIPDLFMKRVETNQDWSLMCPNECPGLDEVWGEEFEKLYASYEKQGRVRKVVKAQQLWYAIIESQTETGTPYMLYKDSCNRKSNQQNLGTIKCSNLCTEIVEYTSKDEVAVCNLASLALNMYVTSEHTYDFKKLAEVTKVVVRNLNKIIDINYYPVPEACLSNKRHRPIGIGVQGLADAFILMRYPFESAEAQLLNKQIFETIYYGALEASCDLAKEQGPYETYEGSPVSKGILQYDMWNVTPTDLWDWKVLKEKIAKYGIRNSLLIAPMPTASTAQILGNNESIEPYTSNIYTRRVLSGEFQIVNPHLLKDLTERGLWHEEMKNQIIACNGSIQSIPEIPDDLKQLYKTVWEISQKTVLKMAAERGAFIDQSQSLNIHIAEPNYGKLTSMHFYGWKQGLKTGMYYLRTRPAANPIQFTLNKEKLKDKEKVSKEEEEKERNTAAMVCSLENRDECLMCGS
Sequence (Q7LG56 whole entry, looked up): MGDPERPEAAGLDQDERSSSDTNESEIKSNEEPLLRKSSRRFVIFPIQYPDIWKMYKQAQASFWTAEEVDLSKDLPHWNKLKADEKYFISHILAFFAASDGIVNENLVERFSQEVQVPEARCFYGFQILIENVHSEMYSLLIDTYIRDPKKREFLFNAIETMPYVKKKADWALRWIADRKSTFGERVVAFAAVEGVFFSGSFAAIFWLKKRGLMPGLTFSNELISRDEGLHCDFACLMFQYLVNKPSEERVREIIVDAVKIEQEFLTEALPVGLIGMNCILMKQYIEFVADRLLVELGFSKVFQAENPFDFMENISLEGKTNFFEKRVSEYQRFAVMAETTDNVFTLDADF

| Compound | IC50 [nM] |
| --- | --- |
| Cc1ccc(F)c([C@@H](C)[C@H](NS(=O)(=O)c2cccc3c2OCCN3)c2n[nH]c(=O)o2)c1C | 420 |
| COc1cc(N)ccc1S(=O)(=O)N[C@H](c1n[nH]c(=O)o1)[C@H](C)c1c(F)ccc2ccccc12 | 260 |
| Cc1ccc(F)c([C@@H](C)[C@H](NS(=O)(=O)c2cccc3c2CCNC3)c2n[nH]c(=O)o2)c1C | 760 |
| Cc1c(Cl)ccc(F)c1[C@@H](C)[C@H](NS(=O)(=O)c1ncc(Br)cc1C(N)=O)c1n[nH]c(=O)o1 | 70 |
| Cc1ccc(F)c([C@@H](C)[C@H](NS(=O)(=O)c2ccc(Cl)c3c2OCCC3N)c2n[nH]c(=O)o2)c1C (stereo not given in full) | 130 |
| Cc1ccc(F)c([C@@H](C)[C@H](NS(=O)(=O)c2ccc(Cl)c3c2OCC(=O)N3CCO)c2n[nH]c(=O)o2)c1C | 130 |
| Cc1ccc(F)c([C@@H](C)[C@H](NS(=O)(=O)c2ccc(Cl)cc2C(=O)NOCc2ccccc2)c2n[nH]c(=O)o2)c1C | 910 |
| COc1cc(N)ccc1S(=O)(=O)N[C@H](c1n[nH]c(=O)o1)[C@H](C)c1cccc2c1CCC2 | 730 |
| Cc1ccc(F)c([C@@H](C)[C@H](NS(=O)(=O)c2ccc(Cl)c3c2OCCN3)c2n[nH]c(=O)o2)c1C | 100 |
| Cc1ccc(F)c([C@@H](C)[C@H](NS(=O)(=O)c2ccc(Cl)c(C(=O)N(C)C)n2)c2n[nH]c(=O)o2)c1C | 80 |
| COc1cc(N)ccc1S(=O)(=O)N[C@H](c1n[nH]c(=O)o1)[C@H](C)c1cccc2cccc(C)c12 | 510 |
| C[C@H](c1cccc2c1CCCC2)[C@H](NS(=O)(=O)c1ccc(N)cc1)c1n[nH]c(=O)o1 | 850 |
| Cc1ccc(F)c([C@@H](C)[C@H](NS(=O)(=O)c2ccccc2C(=O)NO)c2n[nH]c(=O)o2)c1C | 310 |
| Cc1ccc(F)c([C@@H](C)[C@H](NS(=O)(=O)c2ccc(Cl)c(C(=O)N3CCC(N)C3)n2)c2n[nH]c(=O)o2)c1C (stereo not given in full) | 150 |
| CC(=O)N1CCOc2c(S(=O)(=O)N[C@H](c3n[nH]c(=O)o3)[C@H](C)c3cccc(C)c3C)ccc(Cl)c21 | 560 |
| Cc1c(Br)ccc(F)c1[C@@H](C)[C@H](NS(=O)(=O)c1ncc(Cl)cc1C(N)=O)c1n[nH]c(=O)o1 | 60 |

Next, values leading:

| IC50 [nM] | Compound |
| --- | --- |
| 120 | Cc1ccc(F)c([C@@H](C)[C@H](NS(=O)(=O)c2cc(F)c(Cl)cc2C(N)=O)c2n[nH]c(=O)o2)c1C |
| 100 | Cc1cc(S(=O)(=O)N[C@H](c2n[nH]c(=O)o2)[C@H](C)c2c(F)ccc(C)c2C)c(C(N)=O)cc1Cl |
| 70 | Cc1ccc(F)c([C@@H](C)[C@H](NS(=O)(=O)c2ccc(Cl)cc2C(=O)NO)c2n[nH]c(=O)o2)c1C |
| 360 | COc1cc(C(N)=O)c(S(=O)(=O)N[C@H](c2n[nH]c(=O)o2)[C@H](C)c2c(F)ccc(C)c2C)cc1OC |
| 70 | Cc1ccc(F)c([C@@H](C)[C@H](NS(=O)(=O)c2cc(OCC(F)F)ccc2C(N)=O)c2n[nH]c(=O)o2)c1C |
| 370 | CNC(=O)c1cc(Cl)ccc1S(=O)(=O)N[C@H](c1n[nH]c(=O)o1)[C@H](C)c1c(F)ccc(C)c1C |
| 140 | Cc1ccc(F)c([C@@H](C)[C@H](NS(=O)(=O)c2c(F)cc(Cl)cc2C(N)=O)c2n[nH]c(=O)o2)c1C |
| 420 | Cc1ccc(F)c([C@@H](C)[C@H](NS(=O)(=O)c2c(Cl)cc(Cl)cc2C(N)=O)c2n[nH]c(=O)o2)c1C |
| 230 | Cc1ccc(F)c([C@@H](C)[C@H](NS(=O)(=O)c2ccc(Cl)cc2N)c2n[nH]c(=O)o2)c1C |
| 130 | Cc1ccc(F)c([C@@H](C)[C@H](NS(=O)(=O)c2cc([N+](=O)[O-])c(Cl)cc2C(N)=O)c2n[nH]c(=O)o2)c1C |
| 100 | COc1cc(S(=O)(=O)N[C@H](c2n[nH]c(=O)o2)[C@H](C)c2c(F)ccc(C)c2C)c(C(N)=O)cc1Cl |
| 440 | CC(=O)Nc1cc(Cl)ccc1S(=O)(=O)N[C@H](c1n[nH]c(=O)o1)[C@H](C)c1c(F)ccc(C)c1C |
| 660 | COC(=O)c1cc(Cl)c(N)cc1S(=O)(=O)N[C@H](c1n[nH]c(=O)o1)[C@H](C)c1c(F)ccc(C)c1C |
| 90 | Cc1ccc(F)c([C@@H](C)[C@H](NS(=O)(=O)c2cc3c(cc2C(N)=O)OCCO3)c2n[nH]c(=O)o2)c1C |
